{
  "source": "patent US20220396794A1",
  "about": "“APTAMERS AGAINST TRANSFERRIN RECEPTOR (TfR)” (APTERNA LIMITED, priority 2019, published 2022)",
  "key": {"PANC-1 cells": {"system": "PANC-1 cells", "assay": "MTS assay, inhibition of cell proliferation", "format": "cell-based, human", "description": "MTS assay. […] Cells were treated with tTR14-C/EBPα and […] at 100 nM or 200 nM twice at 24-h intervals."}, "C/EBPα mRNA [1]": {"system": "C/EBPα mRNA", "assay": "Analysis of gene expression in vivo in C57BL/6J mice, C/EBPα", "conditions": "B6 mice, 3 doses of 1 nmol via tail vein", "description": "(§1) Relative gene expression analysis by qPCR in vitro. For analyzing gene activation and protein expression, PANC-1 cells were seeded in duplicate into 24-well plates at a density of 1×10^5 cells per well. tTR14 or control aptamer (IRRE) conjugated to C/EBPα-saRNAs were added directly to the cells, at a final concentration of 100 nM or 200 nM. The treatment was repeated 24 h later and cells were harvested at final incubation times of 48 or 72 h. Total RNA was extracted for reverse transcription using an RNeasy kit (Qiagen). Target cDNA amplification and real-time PCR was performed using a Bio-rad kit (SsoAdvanced™ Universal SYBR® Green Supermix). For normalization, the reference gene 18S was used. To determine gene expression in vivo samples, total RNA was extracted for reverse transcription (QuantiFast® Reverse transcription, Qiagen) and target cDNA was amplified using real-time PCR (QuantiFast® SYBR®Green Master mix). The cDNA probes used were purchased as prevalidated QuantiTect® SYBR probes from Qiagen. Real-time PCR was performed with validated QuantiTect® SYBR probes (Qiagen) or validated FAM probes (Applied Biosystems).\n(§2) Analysis of gene expression in vivo. Female or male at 6 week C57BL/6J mice were purchased from the Jackson laboratory for three conjugates; TC, TCT, and TCUT. […]"}, "PANC-Luc tumors": {"system": "PANC-Luc tumors", "assay": "Liver-metastatic pancreatic cancer mouse model, combinational treatment with gemcitabine", "format": "in vivo, NOD/SCID mice", "conditions": "conjugate 1 nmol 3 times/week I.P. combined with gemcitabine 50 mg/kg 2 times/week I.V., compared with PBS", "description": "Intrahepatic pancreatic cancer liver-metastatic mouse model. To create an animal model harboring traceable tumors, a firefly luciferase fragment was inserted into the pLKO.1-AS3 backbone encoding the neo gene (National RNAi Core, Academia Sinica, Taiwan). One day before transduction, 293T cells were plated onto a 6-well plate. On the day of transduction, the medium was replaced with DMEM containing serial dilutions of the transfer plasmids and incubated for 5 h, then the medium was replaced. After two days, the culture medium containing recombinant lentiviral particles was obtained. PANC-1 cells were incubated with recombinant lentiviral particles for 24 h. […] Luciferase expression was assessed using the Luciferase Assay System. […] For the combinational treatment with gemcitabine, tumors were allowed to grow for 2 weeks after inoculation until they could be detected using an IVIS system, then mice were randomly divided into five groups of 10 animals/group. […] Tumor growth was monitored by evaluating bioluminescence using an IVIS 200 in vivo imaging platform (Caliper Life Sciences, Alameda, Calif.) and measuring the difference from before the first injection and one day after the last injection. […] The mice were imaged using the IVIS 200 and bioluminescent signals were analyzed using Living Image Software (Caliper Life Sciences, Alameda, Calif.). […]"}, "C/EBPα mRNA [2]": {"system": "C/EBPα mRNA", "assay": "Relative gene expression by qPCR in vitro, C/EBPα", "format": "cell-based, human", "description": "as §1"}, "p21 mRNA": {"system": "p21 mRNA", "assay": "Relative gene expression by qPCR in vitro, p21", "format": "cell-based, human", "description": "as §1"}, "albumin mRNA": {"system": "albumin mRNA", "assay": "Analysis of gene expression in vivo in C57BL/6J mice, albumin", "conditions": "B6 mice, 3 doses of 1 nmol via tail vein, tissue harvesting on day 8", "description": "as §1, §2"}, "[3]": {"conditions": "PANC-1, 100 nM, 48 or 72 h (FIG. 7)"}, "[4]": {"conditions": "PANC-1, 72 h, 100 nM, compared to IRRE control group (FIG. 3)"}},
  "data": [
    {"substance": "TCUT: TR14 ST1-3 with CEBPA sense, a 10-uracil spacer and albumin affinity tag (UUUAUUCACAUUUUUGAAUUGAGCGGUCAUUGUCACUGGUCUUUUUUUUUUUUN; listed as RNA, chemistry not given here)", "values": [
      {"measurement": "cell proliferation by MTS assay", "setting": "PANC-1 cells; [3]", "result": "inhibited the cancer cell proliferation"},
      {"measurement": "cell proliferation by MTS assay", "setting": "PANC-1 cells; PANC-1, 72 h, compared to IRRE control group (FIG. 3)", "result": "inhibition of tumor cell proliferation"},
      {"measurement": "mRNA levels of C/EBPα in brain tissue", "setting": "C/EBPα mRNA [1]; tissue harvesting on day 8", "result": "no upregulation"},
      {"measurement": "mRNA levels of C/EBPα in liver", "setting": "C/EBPα mRNA [1]; tissue harvesting on day 8, compared to untreated group", "result": "increased"},
      {"measurement": "tumor burden by measuring photon increase", "setting": "PANC-Luc tumors", "result": "significant reduction of tumor burden"},
      {"measurement": "upregulation of C/EBPα", "setting": "C/EBPα mRNA [2]; [3]", "result": "upregulation"},
      {"measurement": "mRNA expression of C/EBPα", "setting": "C/EBPα mRNA [2]; [4]", "result": "upregulation"},
      {"measurement": "upregulation of p21", "setting": "p21 mRNA; [3]", "result": "upregulation"},
      {"measurement": "mRNA expression of p21", "setting": "p21 mRNA; [4]", "result": "upregulation"},
      {"measurement": "albumin mRNA levels in liver", "setting": "albumin mRNA", "result": "none increased"}
    ]}
  ]
}
